ChEMBL document CHEMBL4270599, “Synthesis of a 3'-C-ethynyl-β-d-ribofuranose purine nucleoside library: Discovery of C7-deazapurine analogs as potent antiproliferative nucleosides” (Eur J Med Chem, 2018)

Tests used:
HOP-62 = assay: Cytotoxicity against human HOP62 cells after 48 hrs by SRB assay; format: functional; details: HOP-62, 48 h; for GI50: read-out: GI50; for TGI: read-out: TGI
NCI-H460 = assay: Cytotoxicity against human NCI-H460 cells after 48 hrs by SRB assay; format: functional; details: NCI-H460, 48 h; for TGI: read-out: TGI
SF-539 [1] = assay: Cytotoxicity against human SF539 cells after 48 hrs by SRB assay; format: functional; details: SF-539, 48 h; for GI50: read-out: GI50; for CC50: read-out: LC50 (the source's name); for TGI: read-out: TGI
M14 = assay: Cytotoxicity against human M14 cells after 48 hrs by SRB assay; format: functional; details: M14, 48 h; for GI50: read-out: GI50; for CC50: read-out: LC50 (the source's name); for TGI: read-out: TGI
SK-MEL-28 = assay: Cytotoxicity against human SK-MEL-28 cells after 48 hrs by SRB assay; format: functional; details: SK-MEL-28, 48 h; for GI50: read-out: GI50; for TGI: read-out: TGI
TK-10 [2] = assay: Cytotoxicity against human TK10 cells after 48 hrs by SRB assay; format: functional; details: TK-10, 48 h; for GI50: read-out: GI50; for TGI: read-out: TGI
MCF7 = assay: Cytotoxicity against human MCF7 cells after 48 hrs by SRB assay; format: functional; details: MCF7, 48 h; for GI50: read-out: GI50; for CC50: read-out: LC50 (the source's name); for TGI: read-out: TGI
IGROV-1 = assay: Growth inhibition of human IGROV1 cells assessed as cell growth at 10^-8 M incubated for 48 hrs by sulforhodamine B assay relative to control; format: functional; details: IGROV-1, 48 h, read-out: Activity
OVCAR-8 = assay: Growth inhibition of human OVCAR8 cells assessed as cell growth at 10^-8 M incubated for 48 hrs by sulforhodamine B assay relative to control; format: functional; details: OVCAR-8, 48 h, read-out: Activity
TK-10 [3] = assay: Growth inhibition of human TK10 cells assessed as cell growth at 10^-8 M incubated for 48 hrs by sulforhodamine B assay relative to control; format: functional; details: TK-10, 48 h, read-out: Activity
DU-145 = assay: Growth inhibition of human DU145 cells assessed as cell growth at 10^-8 M incubated for 48 hrs by sulforhodamine B assay relative to control; format: functional; details: DU-145, 48 h, read-out: Activity
RPMI-8226 = assay: Growth inhibition of human RPMI8226 cells assessed as cell growth at 10^-7 M incubated for 48 hrs by sulforhodamine B assay relative to control; format: functional; details: RPMI-8226, 48 h, read-out: Activity
NCI-H322M = assay: Growth inhibition of human NCI-H322M cells assessed as cell growth at 10^-7 M incubated for 48 hrs by sulforhodamine B assay relative to control; format: functional; details: read-out: Activity
HT-29 = assay: Growth inhibition of human HT-29 cells assessed as cell growth at 10^-7 M incubated for 48 hrs by sulforhodamine B assay relative to control; format: functional; details: HT-29, 48 h, read-out: Activity
SF-539 [4] = assay: Growth inhibition of human SF539 cells assessed as cell growth at 10^-7 M incubated for 48 hrs by sulforhodamine B assay relative to control; format: functional; details: SF-539, 48 h, read-out: Activity
SK-MEL-5 = assay: Growth inhibition of human SK-MEL-5 cells assessed as cell growth at 10^-7 M incubated for 48 hrs by sulforhodamine B assay relative to control; format: functional; details: SK-MEL-5, 48 h, read-out: Activity
PC-3 = assay: Growth inhibition of human PC3 cells assessed as cell growth at 10^-7 M incubated for 48 hrs by sulforhodamine B assay relative to control; format: functional; details: PC-3, 48 h, read-out: Activity
SF-268 = assay: Growth inhibition of human SF268 cells assessed as cell growth at 10^-6 M incubated for 48 hrs by sulforhodamine B assay relative to control; format: functional; details: SF-268, 48 h, read-out: Activity
SF-539 [5] = assay: Growth inhibition of human SF539 cells assessed as cell growth at 10^-6 M incubated for 48 hrs by sulforhodamine B assay relative to control; format: functional; details: SF-539, 48 h, read-out: Activity
786-0 = assay: Growth inhibition of human 786-0 cells assessed as cell growth at 10^-6 M incubated for 48 hrs by sulforhodamine B assay relative to control; format: functional; details: 786-0, 48 h, read-out: Activity
Hs-578T = assay: Growth inhibition of human Hs 578T cells assessed as cell growth at 10^-6 M incubated for 48 hrs by sulforhodamine B assay relative to control; format: functional; details: read-out: Activity
MOLT-4 = assay: Growth inhibition of human MOLT4 cells assessed as cell growth at 10^-5 M incubated for 48 hrs by sulforhodamine B assay relative to control; format: functional; details: MOLT-4, 48 h, read-out: Activity
SR = assay: Growth inhibition of human SR cells assessed as cell growth at 10^-5 M incubated for 48 hrs by sulforhodamine B assay relative to control; format: functional; details: read-out: Activity
UACC-257 = assay: Growth inhibition of human UACC257 cells assessed as cell growth at 10^-5 M incubated for 48 hrs by sulforhodamine B assay relative to control; format: functional; details: UACC-257, 48 h, read-out: Activity
HCT-15 = assay: Growth inhibition of human HCT15 cells assessed as cell growth at 10^-4 M incubated for 48 hrs by sulforhodamine B assay relative to control; format: functional; details: HCT-15, 48 h, read-out: Activity
[6] = Antiproliferative activity against HELF cells after 4 days by Coulter counter method; format: cell-based; details: Homo sapiens, 96 h
TK-10 [7] = assay: Growth inhibition of human TK10 cells assessed as cell growth at 10^-6 M incubated for 48 hrs by sulforhodamine B assay relative to control; format: functional; details: TK-10, 48 h, read-out: Activity
SNB-19 = assay: Growth inhibition of human SNB19 cells assessed as cell growth at 10^-5 M incubated for 48 hrs by sulforhodamine B assay relative to control; format: functional; details: SNB-19, 48 h, read-out: Activity
TK-10 [8] = assay: Growth inhibition of human TK10 cells assessed as cell growth at 10^-4 M incubated for 48 hrs by sulforhodamine B assay relative to control; format: functional; details: TK-10, 48 h, read-out: Activity
[9] = read-out: pLC50 (the source's name) (converted)
[10] = read-out: LC50 (the source's name)

SMILES: C#C[C@@]1(O)[C@@H](CO)O[C@@H](n2cc(Cl)c3c(N)ncnc32)[C@@H]1O
- GI50 (HOP-62): 216 to 299 nM
- TGI (HOP-62): 1160 to 3350 nM
- CC50 (HOP-62; [9]): > 100000 nM
- TGI (NCI-H460): 226 to 753 nM
- CC50 (NCI-H460; [9]): > 100000 nM
- GI50 (SF-539 [1]): 299 to 351 nM
- CC50 (SF-539 [1]): 21900 to 33900 nM
- TGI (SF-539 [1]): 1300 to 1610 nM
- GI50 (M14): 157 to 200 nM
- CC50 (M14): > 100000 nM
- TGI (M14): 520 to 659 nM
- GI50 (SK-MEL-28): 469 to 706 nM
- TGI (SK-MEL-28): 57100 to 89400 nM
- CC50 (SK-MEL-28; [9]): > 100000 nM
- GI50 (TK-10 [2]): 302 to 334 nM
- TGI (TK-10 [2]): 891 to 1720 nM
- CC50 (TK-10 [2]; [9]): > 100000 nM
- GI50 (MCF7): 21.8 to 31.9 nM
- CC50 (MCF7): 5320 to 7110 nM
- TGI (MCF7): 1040 to 1160 nM
- growth at 0.01 µM (IGROV-1): 91 to 94%
- growth at 0.01 µM (OVCAR-8): 50 to 62%
- growth at 0.01 µM (TK-10 [3]): 96 to 105%
- growth at 0.01 µM (DU-145): 96 to 100%
- growth at 0.1 µM (RPMI-8226): 64 to 65%
- growth at 0.1 µM (NCI-H322M): 67 to 80%
- growth at 0.1 µM (HT-29): 18 to 38%
- growth at 0.1 µM (SF-539 [4]): 90 to 98%
- growth at 0.1 µM (SK-MEL-5): 55 to 69%
- growth at 0.1 µM (PC-3): 62 to 70%
- growth at 1 µM (SF-268): 23 to 24%
- growth at 1 µM (SF-539 [5]): 6 to 10%
- growth at 1 µM (786-0): 9 to 11%
- growth at 1 µM (Hs-578T): 25 to 77%
- growth at 10 µM (MOLT-4): 2%
- growth at 10 µM (SR): 1 to 5%
- growth at 10 µM (UACC-257): 34 to 42%
- growth at 100 µM (HCT-15): 1%
- IC50 [6]: 9.2 nM

SMILES: C#C[C@@]1(O)[C@@H](CO)O[C@@H](n2cc(Br)c3c(N)ncnc32)[C@@H]1O
- GI50 (HOP-62): 211 to 427 nM
- CC50 (HOP-62; [10]): > 100000 nM
- TGI (HOP-62): 4760 to 100000 nM
- GI50 (NCI-H460; read-out: GI50): 17.1 to 50 nM
- CC50 (NCI-H460; [10]): > 100000 nM
- TGI (NCI-H460): 1540 to 5270 nM
- GI50 (SF-539 [1]): 238 to 372 nM
- CC50 (SF-539 [1]): 22000 to 30900 nM
- TGI (SF-539 [1]): 1140 to 2040 nM
- GI50 (M14): 145 to 353 nM
- CC50 (M14): 75300 to 100000 nM
- TGI (M14): 12900 to 14200 nM
- GI50 (SK-MEL-28): 3050 to 4370 nM
- CC50 (SK-MEL-28; [10]): > 100000 nM
- TGI (SK-MEL-28): 30200 to 48100 nM
- GI50 (TK-10 [2]): 411 to 481 nM
- CC50 (TK-10 [2]; [10]): > 100000 nM
- TGI (TK-10 [2]): 85800 to 100000 nM
- GI50 (MCF7): 16 to 30.7 nM
- CC50 (MCF7): > 100000 nM
- TGI (MCF7): 1190 to 1810 nM
- growth at 0.01 µM (IGROV-1): 81 to 88%
- growth at 0.01 µM (OVCAR-8): 53 to 76%
- growth at 0.01 µM (TK-10 [3]): 100 to 106%
- growth at 0.01 µM (DU-145): 98 to 100%
- growth at 0.1 µM (RPMI-8226): 41 to 83%
- growth at 0.1 µM (NCI-H322M): 73 to 76%
- growth at 0.1 µM (HT-29): 10 to 35%
- growth at 0.1 µM (SF-539 [4]): 79 to 91%
- growth at 0.1 µM (SK-MEL-5): 30 to 71%
- growth at 0.1 µM (PC-3): 33 to 61%
- growth at 1 µM (SF-268): 34 to 36%
- growth at 1 µM (SF-539 [5]): 3 to 19%
- growth at 1 µM (TK-10 [7]): 17 to 27%
- growth at 1 µM (Hs-578T): 6 to 57%
- growth at 10 µM (SR): 1 to 5%
- growth at 10 µM (SNB-19): 1%
- growth at 10 µM (UACC-257): 37 to 43%
- growth at 100 µM (HCT-15): 1 to 4%
- growth at 100 µM (TK-10 [8]): 7%
- IC50 [6]: 17 nM
